Laboratory results taken from US11779559B2, “Compositions for treating fungal and bacterial biofilms and methods of using the same” (priority 2017, dated 2023).

Legend:
C. albicans [1] = assay: Sustained inhibition biofilm assay, fungal; type: cell-based, Candida albicans; conditions: sustained inhibition assay; C. albicans; 1% amino acid (unless specifically noted); p≤0.001
Protocol: (§1) Two types of biofilm assays were performed: a sustained inhibition assay and a disruption assay. The sustained inhibition assay assesses the compound's ability to prevent biofilm development throughout all stages of biofilm formation, while the disruption assay assesses the compound's ability to break up an existing mature biofilm. These assays are described in detail in the following article: Lohse, M. B., Gulati, M., Valle Arevalo, A., Fishburn, A., Johnson, A. D., and Nobile, C. […] Antimicrobial Agents and Chemotherapy 61: e02749-16.
(§2) All bacterial biofilm solutions were prepared in Trypic Soy Broth (TSB), supplemented with 1% glucose (henceforth referred to as TSB-G). All subsequent procedures were performed in a manner that maintained sterility. A solution of each amino acid to be tested was prepared in weight to volume concentrations ranging from 0.1-5.0%. Amino acids were also tested in combinations. Compound solutions were homogenized with gentle agitation in the dark (4° C., 24 hours) before use.
(§3) Fungal strains were streaked on Yeast Peptone Dextrose (YPD) agar plates and incubated at 30° C. for 48 hours. A single colony from each strain to be tested was inoculated into YPD broth and grown for 12 hours, at 30° C., shaking at 225 rpm. […] The cells were allowed to adhere to the plate for 90 minutes at 37° C. with shaking (350 rpm). […] The plate was further incubated for 24 hours at 37° C. with shaking (350 rpm). Media was carefully aspirated and the biofilm was measured by optical density at 600 nm. […] The cells were allowed to adhere to the plate for 90 minutes at 37° C. with shaking (350 rpm). […] The plate was further incubated for 24 hours at 37° C. with shaking (350 rpm). […] The plate was further incubated for 24 hours at 37° C. with shaking (350 rpm). Media was carefully aspirated and the biofilm was measured by optical density at 600 nm.

C. albicans [2] = assay: Disruption biofilm assay, fungal; type: cell-based, Candida albicans; conditions: disruption assay; C. albicans; 1% amino acid (unless specifically noted); p≤0.001
Protocol: as §1, §2, §3

[3] = tested on: bacteria (S. aureus) biofilm and fungal (C. albicans) biofilm; assay: Sustained inhibition biofilm assay, bacterial and fungal taken together; type: cell-based; conditions: sustained inhibition assay; bacterial and fungal biofilm; 1% amino acid (unless specifically noted); p≤0.001
Protocol: (§4) Two types of biofilm assays were performed: a sustained inhibition assay and a disruption assay. The sustained inhibition assay assesses the compound's ability to prevent biofilm development throughout all stages of biofilm formation, while the disruption assay assesses the compound's ability to break up an existing mature biofilm. These assays are described in detail in the following article: Lohse, M. B., Gulati, M., Valle Arevalo, A., Fishburn, A., Johnson, A. D., and Nobile, C. J. (2017) Assessment and optimizations of Candida albicans in vitro biofilm assays. Antimicrobial Agents and Chemotherapy 61: e02749-16.
as §2, with “For fungal biofilm assays, all solutions were prepared in RPMI 1640 medium. All bacterial” for “All bacterial”
(§5) Fungal strains were streaked on Yeast Peptone Dextrose (YPD) agar plates and incubated at 30° C. for 48 hours. A single colony from each strain to be tested was inoculated into YPD broth and grown for 12 hours, at 30° C., shaking at 225 rpm. For the fungal biofilm inhibition assay, 1 μl of saturated overnight cell culture was added to either 80 μL of RPMI-1640 or RPMI-1640 supplemented with the amino acid compound solution to be tested, in a 384-well plate. […] Media was carefully aspirated and the biofilm was measured by optical density at 600 nm. […] Media was carefully aspirated and the biofilm was measured by optical density at 600 nm. […]
(§6) Bacterial strains were streaked on Blood Agar plates (5% sheep blood in Tryptic Soy Agar) and incubated at 37° C. for 24 hours. […] Media was carefully aspirated and the biofilm was measured by optical density at 600 nm. […]

[4] = tested on: bacteria (S. aureus) biofilm and fungal (C. albicans) biofilm; assay: Disruption biofilm assay, bacterial and fungal taken together; type: cell-based; conditions: disruption assay; bacterial and fungal biofilm; 1% amino acid (unless specifically noted); p≤0.001
Protocol: as §4
as §2, with “For fungal biofilm assays, all solutions were prepared in RPMI 1640 medium. All bacterial” for “All bacterial”
as §5, §6

Compound: N[C@@H](CC(=O)O)C(=O)O [Aspartic Acid, L-aspartic acid]
- Reduce F Biofilm (C. albicans [1]): ●● (two dots [ie. ••] signifies major effect (greater than about 30% change))
- Reduce F Biofilm (C. albicans [2]): ●● (two dots [ie. ••] signifies major effect (greater than about 30% change))
- Reduce Both [3]: ●● (two dots [ie. ••] signifies major effect (greater than about 30% change))
- Reduce Both [4]: ●● (two dots [ie. ••] signifies major effect (greater than about 30% change))
